# US10287301B2 (Achillion Pharmaceuticals, Inc., priority 2015, dated 2019)
# Counter-ions that a name gives are not always drawn. Like-named read-outs stand apart in the source and are kept apart here.
# Biological target: Human Factor D (Homo sapiens (Human), UniProt P00746)
# Experiment: Human Factor D Assay
# Type: biochemical
# Method in brief: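 Thioester cleavage assay: human Factor D (serum-derived, 80 nM final), substrate Z-L-Lys-SBzl with DTNB, both 100 μM final, after 5 min compound preincubation at room temperature.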
# [1] = Human Factor D, Table 3, read-out: IC50
# [2] = Human Factor D assay of Example 8, Table 2, read-out: IC50
# [3] = Human Factor D 80 nM, substrate Z-L-Lys-SBzl, read-out: IC50
# [4] = Table 3, Human Factor D 80 nM, substrate Z-L-Lys-SBzl, read-out: IC50 (Stars)
# Sequence of Human Factor D (P00746 26-253): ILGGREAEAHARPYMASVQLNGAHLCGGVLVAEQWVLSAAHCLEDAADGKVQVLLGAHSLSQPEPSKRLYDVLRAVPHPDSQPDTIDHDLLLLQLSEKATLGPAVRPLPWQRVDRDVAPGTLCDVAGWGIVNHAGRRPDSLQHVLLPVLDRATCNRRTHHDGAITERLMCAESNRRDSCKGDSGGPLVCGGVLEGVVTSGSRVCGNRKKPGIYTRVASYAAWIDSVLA
compound,measurement,setting,value
"CC(=O)c1ccc(Cl)c(-c2cccc(NC(=O)[C@@H]3C[C@H]4C[C@H]4N3C(=O)Cn3nc(C(N)=O)c4sc(-c5cnc(C)nc5)nc43)c2F)c1 [Compound 717, 1-(2-((1R,3S,5R)-3-(5′-Acetyl-2′-chloro-2-fluorobiphenyl-3-ylcarbamoyl)-2-azabicyclo[3.1.0]hexan-2-yl)-2-oxoethyl)-5-(2-methylpyrimidin-5-yl)-1H-pyrazolo[3,4-d]thiazole-3-carboxamide]",IC50,[1],< 1000 nM
"CC(=O)c1nn(CC(=O)N2CC(=O)C[C@H]2C(=O)Nc2cccc(Br)n2)c2ccc(-c3cnc(C)nc3)cc12 [Compound 250, (S)-1-(2-(3-Acetyl-5-(2-methylpyrimidin-5-yl)-1H-indazol-1-yl)acetyl)-N-(6-bromopyridin-2-yl)-4-oxopyrrolidine-2-carboxamide]",IC50,[2],< 1000 nM
"NC(=O)c1nn(CC(=O)N2C[C@H](F)C[C@H]2C(=O)Nc2ccccc2N2CCOC2=O)c2ccc(-c3ccnnc3)cc12 [Compound 65, 1-(2-((2S,4R)-4-fluoro-2-(2-(2-oxooxazolidin-3-yl)phenylcarbamoyl)pyrrolidin-1-yl)-2-oxoethyl)-5-(pyridazin-4-yl)-1H-indazole-3-carboxamide]",IC50,[3],> 10000 nM
"CC(=O)c1nn(CC(=O)N2C[C@H](F)C[C@H]2C(=O)Nc2cc(C)cc(Br)n2)c2ccc(-c3cnc(C)nc3)cc12 [Compound 345, (2S,4R)-1-(2-(3-Acetyl-5-(2-methylpyrimidin-5-yl)-1H-indazol-1-yl)acetyl)-N-(6-bromo-4-methylpyridin-2-yl)-4-fluoropyrrolidine-2-carboxamide]",IC50,[4],< 1000 nM
"NC(=O)c1nn(CC(=O)N2C[C@H](F)C[C@H]2C(=O)Nc2nc(-c3ccc4c(c3)CCCC4)cs2)c2ccc(-c3ccnnc3)cc12 [Compound 55, 1-(2-((2S,4R)-4-fluoro-2-(4-(5,6,7,8-tetrahydro-naphthalen-2-yl)thiazol-2-ylcarbamoyl)pyrrolidin-1-yl)-2-oxoethyl)-5-(pyridazin-4-yl)-1H-indazole-3-carboxamide]",IC50,[3],> 10000 nM
COc1cc(Br)nc(NC(=O)[C@@H]2C[C@@H](F)CN2C(=O)Cn2nc(C(C)=O)c3cc(-c4cnc(C)nc4)ccc32)c1 [Compound 351],IC50,[4],< 1000 nM
"CC(=O)c1cn(CC(=O)N2C[C@H](F)C[C@H]2C(=O)Nc2cncc(Br)n2)c2ccc(-c3cnc4cc(C)nn4c3)cc12 [Compound 310, (2S,4R)-1-(2-(3-acetyl-5-(2-methylpyrazolo[1,5-a]pyrimidin-6-yl)-1H-indol-1-yl)acetyl)-N-(6-bromopyrazin-2-yl)-4-fluoropyrrolidine-2-carboxamide]",IC50,[2],< 1000 nM
"Cc1cccc(NC(=O)[C@@H]2C[C@@H](F)CN2C(=O)Cn2nc(C(N)=O)c3sc(-c4cnc(C)nc4)nc32)n1 [Compound 715, 1-(2-((2S,4R)-4-Fluoro-2-(6-methylpyridin-2-ylcarbamoyl)pyrrolidin-1-yl)-2-oxoethyl)-5-(2-methylpyrimidin-5-yl)-1H-pyrazolo[3,4-d]thiazole-3-carboxamide]",IC50,[1],> 10000 nM
"Cc1ncc(-c2cc3c(C(N)=O)nn(CC(=O)N4C[C@H](F)C[C@H]4C(=O)Nc4cccc(Br)n4)c3cn2)cn1 [Compound 278, 1-(2-((2S,4R)-2-(6-bromopyridin-2-ylcarbamoyl)-4-fluoropyrrolidin-1-yl)-2-oxoethyl)-5-(2-methylpyrimidin-5-yl)-1H-pyrazolo[3,4-c]pyridine-3-carboxamide]",IC50,[2],< 1000 nM
"CC(=O)c1cn(CC(=O)N2C[C@H](F)C[C@H]2C(=O)Nc2cncc(Cl)n2)c2ccc(-c3ccnnc3)cc12 [Compound 88, (2S,4R)-1-(2-(3-acetyl-5-(pyridazin-4-yl)-1H-indol-1-yl)acetyl)-N-(6-chloropyrazin-2-yl)-4-fluoropyrrolidine-2-carboxamide]",IC50,[3],< 1000 nM
"CC(=O)c1nn(CC(=O)N2[C@H](C(=O)Nc3nc(Br)ccc3C3CC3)C[C@@]3(C)C[C@@H]23)c2ccc(-c3cnc(C)nc3)cc12 [Compound 616, (1R,3S,5R)-2-(2-(3-Acetyl-5-(2-methylpyrimidin-5-yl)-1H-indazol-1-yl)acetyl)-N-(6-bromo-3-cyclopropyl-pyridin-2-yl)-5-methyl-2-azabicyclo[3.1.0]hexane-3-carboxamide]",IC50,[1],< 1000 nM
"CC(=O)c1nn(CC(=O)N2C[C@H](F)C[C@H]2C(=O)Nc2cc(C)n(CC(F)(F)F)n2)c2ccc(-c3cnc(C)nc3)cc12 [Compound 429, (2S,4R)-1-(2-(3-Acetyl-5-(2-methylpyrimidin-5-yl)-1H-indazol-1-yl)acetyl)-N-(5-methyl-1-(2,2,2-trifluoroethyl)-1H-pyrazol-3-yl)-4-fluoropyrrolidine-2-carboxamide]",IC50,[4],< 1000 nM
"CC(=O)c1nn(CC(=O)N2C[C@H](F)C[C@H]2C(=O)Nc2cccc(Br)n2)c2ccc(-c3cnc(CNC(=O)OC(C)(C)C)nc3)cc12 [Compound 403, tert-butyl ((5-(3-Acetyl-1-(2-((2S,4R)-2-((6-bromopyridin-2-yl)carbamoyl)-4-fluoropyrrolidin-1-yl)-2-oxoethyl)-1H-indazol-5-yl)pyrimidin-2-yl)methyl)carbamate]",IC50,[4],< 1000 nM
"CC(=O)c1cn(CC(=O)N2C[C@H](F)C[C@H]2C(=O)Nc2cccc(Br)n2)c2ccc(-c3cnc(C4CC4)nc3)cc12 [Compound 216, (2S,4R)-1-(2-(3-acetyl-5-(2-cyclopropylpyrimidin-5-yl)-1H-indol-1-yl)acetyl)-N-(6-bromopyridin-2-yl)-4-fluoropyrrolidine-2-carboxamide]",IC50,[2],< 1000 nM
"CC(=O)c1nn(CC(=O)N2C[C@H](F)C[C@H]2C(=O)Nc2cnc(C)c(Br)n2)c2ccc(-c3ccc4nc(C)nn4c3)cc12 [Compound 663, (2S,4R)-1-(2-(3-Acetyl-5-(2-methyl-[1,2,4]triazolo[1,5-a]pyridin-6-yl)-1H-indazol-1-yl)acetyl)-N-(6-bromo-5-methylpyrazin-2-yl)-4-fluoropyrrolidine-2-carboxamide]",IC50,[1],< 1000 nM
"CC(=O)c1cn(CC(=O)N2C[C@H](F)C[C@H]2C(=O)Nc2ccccc2-c2nncn2C)c2ccc(-c3ccnnc3)cc12 [Compound 181, (2S,4R)-1-(2-(3-acetyl-5-(pyridazin-4-yl)-1H-indol-1-yl)acetyl)-4-fluoro-N-(2-(4-methyl-4H-1,2,4-triazol-3-yl)phenyl) pyrrolidine-2-carboxamide]",IC50,[3],> 10000 nM
"CC(=O)c1nn(CC(=O)N2C[C@H](F)C[C@H]2C(=O)Nc2cccc(Br)n2)c2ccc(-c3cnc4c(C#N)c(C)nn4c3)cc12 [Compound 262, (2S,4R)-1-(2-(3-acetyl-5-(3-cyano-2-methylpyrazolo[1,5-a]pyrimidin-6-yl)-1H-indazol-1-yl)acetyl)-N-(6-bromopyridin-2-yl)-4-fluoropyrrolidine-2-carboxamide]",IC50,[2],< 1000 nM
"CC(=O)c1nn(CC(=O)N2C[C@H](F)C[C@H]2C(=O)Nc2cncc(Br)n2)c2ccc(-c3cnc4cc(C5CC5)nn4c3)cc12 [Compound 655, (2S,4R)-1-(2-(3-Acetyl-5-(2-cyclopropylpyrazolo[1,5-a]pyrimidin-6-yl)-1H-indazol-1-yl)acetyl)-N-(6-bromopyrazin-2-yl)-4-fluoropyrrolidine-2-carboxamide]",IC50,[1],< 1000 nM
"CC(=O)c1nn(CC(=O)N2C[C@H](F)C[C@H]2C(=O)Nc2cccc(Br)n2)c2ccc(-c3cnc(CN)nc3)cc12 [Compound 404, (2S,4R)-1-(2-(3-Acetyl-5-(2-(aminomethyl)pyrimidin-5-yl)-1H-indazol-1-yl)acetyl)-N-(6-bromopyridin-2-yl)-4-fluoropyrrolidine-2-carboxamide hydrochloride]",IC50,[4],< 1000 nM
"NC(=O)c1nn(CC(=O)N2C[C@H](F)C[C@H]2C(=O)NCc2cccc(Cl)c2)c2ccc(-c3ccnnc3)cc12 [Compound 45, 1-(2-((2S,4R)-2-(3-chlorobenzylcarbamoyl)-4-fluoropyrrolidin-1-yl)-2-oxoethyl)-5-(pyridazin-4-yl)-1H-indazole-3-carboxamide]",IC50,[3],< 1000 nM
"CC(=O)c1nn(CC(=O)N2C[C@H](F)C[C@H]2C(=O)Nc2cccc(C(F)(F)F)n2)c2ccc(-c3cnc(N)nc3)cc12 [Compound 560, (2S,4R)-1-(2-(3-Acetyl-5-(2-aminopyrimidin-5-yl)-1H-indazol-1-yl)acetyl)-4-fluoro-N-(6-(trifluoromethyl)pyridin-2-yl)pyrrolidine-2-carboxamide]",IC50,[1],< 1000 nM
NC(=O)c1nn(CC(=O)N2C[C@H](F)C[C@H]2C(=O)Nc2cccc(-c3ccccc3Cl)c2F)c2ccc(-c3cnc(N4CCCC4)nc3)cc12 [Compound 10],IC50,[3],< 1000 nM
"CC(=O)c1nn(CC(=O)N2[C@@H]3C[C@@H]3C[C@H]2C(=O)Nc2ccn(CC(F)(F)F)n2)c2ccc(-c3cnc(C)nc3)cc12 [Compound 363, (1R,3S,5R)-2-(2-(3-acetyl-5-(2-methylpyrimidin-5-yl)-1H-indazol-1-yl)acetyl)-N-(1-(2,2,2-trifluoroethyl)-1H-pyrazol-3-yl)-2-azabicyclo[3.1.0] hexane-3-carboxamide]",IC50,[4],< 1000 nM
"CC(=O)c1cn(CC(=O)N2C[C@H](F)C[C@H]2C(=O)Nc2cccc(Br)n2)c2ccc(-c3cnc4nccn4c3)cc12 [Compound 222, (2S,4R)-1-(2-(3-acetyl-5-(imidazo[1,2-a]pyrimidin-6-yl)-1H-indol-1-yl)acetyl)-N-(6-bromopyridin-2-yl)-4-fluoropyrrolidine-2-carboxamide]",IC50,[2],< 1000 nM
"CC(=O)c1cn(CC(=O)N2C[C@H](F)C[C@H]2C(=O)Nc2ccc3c(c2)OC(C)(C)C3)c2ccc(-c3ccnnc3)cc12 [Compound 75, (2S,4R)-1-(2-(3-acetyl-5-(pyridazin-4-yl)-1H-indol-1-yl)acetyl)-N-(2,2-dimethyl-2,3-dihydrobenzofuran-6-yl)-4-fluoropyrrolidine-2-carboxamide]",IC50,[3],< 1000 nM
NC(=O)c1nn(CC(=O)N2[C@@H]3C[C@@H]3C[C@H]2C(=O)Nc2cccc(Br)n2)c2ccc(-c3cnc(N4CCCC4)nc3)cc12 [Compound 11],IC50,[3],< 1000 nM
